# Results as given in patent US20220273678A1 (priority 2020, published 2022).
# Entries after “also recorded” stand apart in the source; their conditions may differ. Like-named read-outs stand apart in the source and are kept apart here.
# Assays:
# IL-6 = format: cell-based, African green monkey; conditions: Mito-MES 10-1000 nM, 4F 10 μM
# SARS-CoV-2 [1] = test: SARS-CoV-2 replication in human airway epithelial (HAE) air-liquid interface cultures, flow cytometry; format: cell-based
# cleaved caspase 3 = format: cell-based, human; conditions: methanesulfonate
# SARS-CoV-2 [2] = format: cell-based
# [3] = cited from earlier work
# [4] = mice, doses as high as 230 mg/kg/day; cited from earlier work
# [5] = tested on: IL-6, IL-1β, IL-8, IL-10, TNF-α; format: cell-based, human
# [6] = up to 80 mg orally daily, up to one year; methanesulfonate; cited from earlier work
# icSARS-CoV-2-mNG [7] = format: cell-based, SARS-CoV-2
# Nrf2, Keap1, HO-1 = test: Nrf2, Keap1 and HO-1 protein levels in Calu3 cells, flow cytometry; format: cell-based, human; conditions: infected and uninfected Calu3
# SARS-CoV-2 [8] = test: SARS-CoV-2 replication in HEK293T-hACE2 cells, flow cytometry; format: cell-based; conditions: 100 nM Mito-MES; methanesulfonate
# SARS-CoV-2 [9] = test: Post-exposure prophylaxis in two parents of a household exposed to SARS-CoV-2; format: in vivo, human
# Source text: FIG. 8-a show the timeline of exposure, symptoms and diagnostic tests in household. Two parents [[…], A1 with history of chronic myelogenous leukemia (CML) and healthy parent 39 years, A2] were notified on Dec. 5, 2020 [defined as day 5 (D5)], that the schoolteacher (T1) of their child (C1) tested positive for SARS-CoV-2 and developed symptoms of Covid-19. C1 had 6-h exposure to T1 on November 30 (with masks) (D0). The family had no other exposure to any other person between November 20-30 (D-10 to D0) given Thanksgiving Day on November 26 (D-4). Several children and parents from the same school class were infected with Covid-19 within the first 2 weeks of December. C1 developed fever (100.4° F.; 38° C.) and fatigue 2.5 days after exposure (D0) that lasted 3 days (D2-D5) and remained asymptomatic since then. The second child (C2) was asymptomatic until D12 when they developed fever (100.4° F.; 38° C.), fatigue and coryza on D12-D14. A1 and A2 started Mito-MES on D4. […]
# One important consideration with COVID-19 testing is that it is often unclear how exactly the NP swab was obtained (by healthcare worker or not and whether the posterior or anterior nasopharynx were assessed). […]
# icSARS-CoV-2-mNG [10] = format: cell-based, SARS-CoV-2; conditions: methanesulfonate
# MAVS, TOM70, STING, MX1 = test: MAVS, TOM70, STING and MX1 protein levels in Calu3 cells, flow cytometry and immunofluorescence; format: cell-based, human
compound,measurement,setting,value
"COC1=C(OC)C(=O)C(CCCCCCCCCC[P+](c2ccccc2)(c2ccccc2)c2ccccc2)=C(C)C1=O.CS(=O)(=O)[O-] [Mito-MES, 10-(4,5-dimethoxy-2-methyl-3,6-dioxo-1,4-cyclohexadienyl) decyl triphenylphosphonium methanesulfonate]",SARS-CoV-2-induced secretion of IL-6,IL-6,attenuated the increase in secretion of IL-6
same,Viral replication by flow cytometry in human airway epithelial cells,"SARS-CoV-2 [1]; 1 μM Mito-MES, Control 20.0%, MOI 0.1",0.4%
same,"percent of SARS-CoV-2 infected human lung epithelial cells, flow cytometry","SARS-CoV-2 [1]; HAE ALI cultures, 100 nM Mito-MES",significantly reduced the percent of SARS-CoV-2 infected human lung epithelial cells
same,"percent of SARS-CoV-2 infected FOXJ1+ ciliated epithelial cells, flow cytometry","SARS-CoV-2 [1]; HAE ALI cultures, methanesulfonate",significantly reduced the percent of human FOXJ1 (forkhead box J1) positive ciliated epithelial cells infected with SARS-CoV-2
same,"SARS-CoV-2-induced cleavage of caspase 3, immunofluorescence","cleaved caspase 3; Calu3, Mito-MES 10-1000 nM",reduced SARS-CoV-2-induced increase in cleavage of caspase 3; also recorded: reduced by Mito-MES treatment
same,"percent of infected cells positive for cleaved caspase 3 and MFI of cleaved caspase 3 per cell, flow cytometry","cleaved caspase 3; Calu3, Mito-MES 100 nM, 4F 10 μM",attenuated SARS-CoV-2-induced increase; also recorded: inhibits or reduces SARS-CoV-2-induced increase
same,"release of progeny SARS-CoV-2 virus particles to the cell supernatant, TCID50 assay",SARS-CoV-2 [2],reduction in subsequent release of progeny SARS-CoV-2 virus particles
same,"IC50 against SARS-CoV-2 compared to remdesivir, TCID50 assay",SARS-CoV-2 [2]; Vero E6,three orders of magnitude lower
same,"percent of cells positive for SARS-CoV-2 N and Spike S proteins, flow cytometry","SARS-CoV-2 [2]; Vero cells, methanesulfonate",reduced the percent of cells that were positive for SARS-CoV-2 N and Spike S proteins; also recorded: reduced the percent of infected cells that were positive for N protein
same,antiviral activity by immunofluorescence and qPCR,SARS-CoV-2 [2]; methanesulfonate,confirmed by immunofluorescence (IF) detection of SARS-CoV-2 and by qPCR; also recorded: modest antiviral activity
same,average elevation of fasting plasma concentrations,"[3]; 40-80 mg/day, after about 10 days",about 5 ng/mL
same,plasma concentration after 24 h,"[3]; humans, single 40 mg oral dose",about 2 ng/ml
same,maximal plasma concentration,"[3]; humans, single 80 mg oral dose",33 ng/mL
same,time of maximal plasma concentration,"[3]; humans, single 80 mg oral dose",about 1 h
same,mutagenicity and toxicity,[4],non-mutagenic and non-toxic
same,"secretion of IL-10, Luminex",[5],tended (p=0.09) to reduce the secretion of IL-10
same,safety in humans,[6],safety for up to one year in doses as high as 80 mg orally daily has been validated; also recorded: without any serious adverse events
same,antiviral activity against fluorescent SARS-CoV-2,icSARS-CoV-2-mNG [7],potent and similar antiviral activity
same,protein levels of Nrf2,"Nrf2, Keap1, HO-1",did not impact protein levels of Nrf2
same,protein levels of Keap (Keap1),"Nrf2, Keap1, HO-1; methanesulfonate","reduced protein levels of the endogenous Nrf2 inhibitor, Keap1; also recorded: reduced protein levels of Keap"
same,"percent of SARS-CoV-2 infected HEK293T-hACE2 cells, flow cytometry",SARS-CoV-2 [8],significantly reduced the percent of SARS-CoV-2 infected human non-cancerous HEK293T epithelial cells
same,plasma IgG to SARS-CoV-2 S1 protein,"SARS-CoV-2 [9]; each parent, three timepoints over 5 weeks",undetectable levels
same,symptoms and virological / serological confirmation of infection,"SARS-CoV-2 [9]; two parents, 20 mg/day oral Mito-MES from D4, 6 weeks",remained asymptomatic and without virological and serological confirmation of infection
same,antiviral activity against fluorescent SARS-CoV-2,icSARS-CoV-2-mNG [10],potent and similar antiviral activity
same,MX1 protein levels,"MAVS, TOM70, STING, MX1; Calu3, flow cytometry, 4F 10 μM",increased MX1 protein levels
same,STING protein levels,"MAVS, TOM70, STING, MX1; infected Calu3, flow cytometry, methanesulfonate",did not impact stimulator of interferon genes (STING)
same,"TOM70 protein levels, immunofluorescence","MAVS, TOM70, STING, MX1; infected Calu3 vs vehicle, methanesulfonate",confirmed by immunofluorescence; also recorded: dose-dependent increase in TOM70 protein levels
same,MAVS protein levels,"MAVS, TOM70, STING, MX1; total and infected Calu3, flow cytometry, methanesulfonate",no impact; also recorded: did not modulate MAVS protein levels
same,"TOM70 protein levels, flow cytometry","MAVS, TOM70, STING, MX1; total and infected Calu3, methanesulfonate",increased the translocase of the outer membrane 70 (TOM70) protein levels
